# Measurements taken from patent US20050245508A1, “Treatment of malignant gliomas with TGF-beta inhibitors” (SCIOS, Inc., priority 2003, published 2005).
# Columns and labels:
# [1] = system: SMA-560 intracranial experimental glioma; assay: Syngeneic SMA-560 intracranial glioma in VM/Dk mice; type: in vivo
# Protocol: FIG. 4. […] A. VM/Dk mice received an intracranial injection of 5×10^3 SMA-560 cells. […] B. The animals were treated as in A, but were sacrificed on day 10 to obtain splenocytes. IFN-γ release at 24 h was assessed by Elispot. Data are expressed as cytokine-producing cells per 10^6 effector cells. C. The splenocytes were stimulated with IL-2 for 10 days to generate LAK cells.
# VM/Dk mice were purchased from the TSE Research Center (Berkshire, UK). Mice of 6-12 weeks of age were used in all experiments. The experiments were performed according to the German animal protection law. Groups of 7-8 mice were anesthesized before all intracranial procedures and placed in a stereotaxic fixation device (Stoelting, Wood Dale, Ill.). A burr hole was drilled in the skull 2 mm lateral to the bregma. The needle of a Hamilton syringe (Hamilton, Darmstadt, Germany) was introduced to a depth of 3 mm. […] The mice were observed daily and, in the survival experiments, sacrified when developing neurological symptoms, or sacrificed as indicated in the other experiments.
# Smad2 phosphorylation = assay: Immunoblot of p-Smad2 and total Smad2/3 in glioma cells; type: cell-based
# Protocol: FIG. 2. Abrogation of autocrine TGF-β signaling in glioma cells by Compound No. 79. A. The cells were seeded at 10^4 cells/well in 96 well plates and cultured in the absence or presence of Compound No. 79 for 48 h in serum-free medium. Growth was assessed by [methyl-^3H]-thymidine incorporation at 48 h (*p<0.05, t-test). B. Lysates from untreated glioma cells or cells preexposed to Compound No. 79 (1 μM) for 24 h or exposed to TGF-b2 (5 ng/ml) for 1 h or both were assessed for the levels of p-Smad2 or total Smad2/3. Note that the antibodies were specific to p-Smad2 and total Smad 2 and 3, respectively.
# The levels of phosphorylated Smad2 (p-Smad2) protein levels were analyzed by immunoblot using 20 μg of protein per lane on a 12% acrylamide gel. After transfer to a PVDF membrane (Amersham, Braunschweig, Germany), the blots were blocked in PBS containing 5% skim milk and 0.05% Tween 20, and incubated overnight at 4° C. with p-Smad2 antibody (2 μg/ml). Visualization of protein bands was accomplished using horseradish peroxidase-coupled secondary antibody (Sigma) and enhanced chemiluminescence (Amersham). Total Smad2/3 levels were assessed using a specific Smad2/3 antibody (Becton-Dickinson).
# glioma cells = assay: Viability of glioma cells in response to serum deprivation; type: cell-based; conditions: data not shown
# Protocol: The glioma cells and CCL64 cells were maintained in DMEM supplemented with 2 mM L-glutamine (Gibco Life Technologies, Paisley, UK), 10% FCS (Biochrom KG, Berlin, Germany) and penicillin (100 IU/ml)/streptomycin (100 μg/ml) (Gibco). Growth and viability of the glioma cells was examined by crystal violet, LDH release (Roche, Mannheim, Germany) and trypan blue dye exclusion assays. To assess clonogenicity, 500 SMA-560 cells were seeded into 6 well plates (9.4 cm^2). After formation of visible cell formations, colonies>20 cells were counted.
# [2] = system: splenocytes / LAK cells against SMA-560; assay: Ex vivo immune effector assays, splenocytes of glioma-bearing mice; type: in vivo, VM/Dk mice
# Protocol: FIG. 4. Compound No. 79 inhibits the growth of syngeneic SMA-560 experimental gliomas in vivo and promotes immune activation. A. VM/Dk mice received an intracranial injection of 5×10^3 SMA-560 cells. Three days later treatment with Compound No. 79 was initiated, and survival was monitored. B. The animals were treated as in A, but were sacrificed on day 10 to obtain splenocytes. IFN-γ release at 24 h was assessed by Elispot. Data are expressed as cytokine-producing cells per 10^6 effector cells. C. The splenocytes were stimulated with IL-2 for 10 days to generate LAK cells. Their lytic activity was measured by ^51Cr release using SMA-560 as target cells (vehicle, open squares; Compound No. 79, filled squares) (*p<0.05, t-test).
# IL-10, TNF-α and IFN-γ release by immune effector cells was assessed by Elispot assay in a multiscreen-HA 96 well plate (Millipore, Eschborn, Germany), coated with corresponding anti-human capture antibodies (Becton Dickinson). Briefly, 5×10^4 glioma cells were cocultured for 24 h with 105, 2.5×105 or 5×105 HLA-A2-mismatched, prestimulated (5 days) PBL. The cells were removed using double-distilled water, and captured cytokines were visualized using biotinylated antibodies and streptavidin-alkaline phosphatase (Becton Dickinson). Spots were counted on an Elispot reader system (AID, Straβberg, Germany). […]
# [3] = Solubility in drinking water; type: physicochemical
# [4] = system: CCL64 mink lung epithelial cells; assay: CCL64 TGF-β bioassay (growth, crystal violet); type: cell-based
# Protocol: FIG. 1. Prevention of the growth inhibitory effects of recombinant and glioma-derived TGF-b1 and TGF-b2 by a TGF-β inhibitor (Compound No. 79 in Table 2). A. CCL64 cells were exposed to human recombinant TGF-b1 (filled symbols) or TGF-b2 (open symbols) (10 ng/ml) in the absence or presence of increasing concentrations of Comopund No. 79 for 72 h. B. CCL64 cells were maintained in serum-free medium containing heat-activated glioma cell SN (1:1) in the absence or presence of Compound No. 79 for 72 h. Growth was assessed by crystal violet assay (mean and SD, n=3).
# The levels of bioactive TGF-β were determined using the CCL64 bioassay. Briefly, […] CCL64 cells were adhered to 96 well plates for 24 h, full medium was replaced by serum-free medium, and the cells were exposed to recombinant TGF-β1/2 or glioma cell culture supernatants diluted in serum-free medium for 72 h. Growth was assessed by crystal violet staining at 72 h. Glioma cell supernatants were harvested from confluent cultures maintained for 48 h in serum-free medium and heat-treated (5 min, 85° C.) to activate latent TGF-β (Leitlein et al., J. Immunol., 166:7238-7243 (2001)).
smiles,measurement,setting,value
Fc1ccc(Cl)cc1-c1nc(Nc2ccncc2)c2nccnc2n1 [Compound No. 79],development of neurological symptoms,"[1]; 1 mg/ml in drinking water from day 3, data not shown",delayed
same,survival rate at 30 days,"[1]; 1 mg/ml in drinking water from day 3, control 0%",29%
same,median survival,"[1]; 1 mg/ml in drinking water from day 3, vehicle 18",23 days
same,mean survival,"[1]; 1 mg/ml in drinking water from day 3, vehicle 18.6±2.1, p=0.004",25.1 ± 6.5 days
same,dose-limiting toxicity,[1]; drinking water 1 mg/ml,No dose-limiting toxicity has been reached
same,total cellular Smad2/3 levels,"Smad2 phosphorylation; 1 μM 24 h, FIG. 2B",without altering
same,Smad2 phosphorylation by endogenous or exogenous TGF-β,"Smad2 phosphorylation; 1 μM 24 h preexposure, TGF-β2 5 ng/ml 1 h, FIG. 2B",interfered with Smad2 phosphorylation
same,pSmad phosphorylation signal in untreated glioma cells,Smad2 phosphorylation; no exogenous TGF-β,abolished
same,viability in response to serum deprivation,glioma cells,did not modulate
same,animals with increase over background of IFN-γ release by splenocytes,"[2]; Elispot, day 7 after initiation of treatment, control 1 of 5, FIG. 4B",3 of 5
same,lytic activity of LAK cells against SMA-560 targets,"[2]; splenocytes stimulated with IL-2 for 10 days, 51Cr release, FIG. 4C",enhanced lytic activity
same,solubility,[3],relatively poor solubility
same,EC50,"[4]; TGF-β1 or TGF-β2 10 ng/ml, 72 h, FIG. 1A, read-out: EC50 of rescue of TGF-β-mediated inhibition of growth",~30 nM
same,growth inhibition mediated by glioma cell supernatants,"[4]; diluted serum-free SMA-560 or LN-308 supernatants, same concentrations, FIG. 1B",nullified
